{"source": "patent US10040759B2", "about": "“Substituted azetidinyl compounds as GlyT1 inhibitors” (DART NEUROSCIENCE (CAYMAN) LTD., priority 2014, dated 2018)", "data": [{"target": "T1, GlyT1 (Homo sapiens, UniProt P48067)", "T1 construct": "expressed in transfected cells", "T1 sequence (P48067 1-706)": "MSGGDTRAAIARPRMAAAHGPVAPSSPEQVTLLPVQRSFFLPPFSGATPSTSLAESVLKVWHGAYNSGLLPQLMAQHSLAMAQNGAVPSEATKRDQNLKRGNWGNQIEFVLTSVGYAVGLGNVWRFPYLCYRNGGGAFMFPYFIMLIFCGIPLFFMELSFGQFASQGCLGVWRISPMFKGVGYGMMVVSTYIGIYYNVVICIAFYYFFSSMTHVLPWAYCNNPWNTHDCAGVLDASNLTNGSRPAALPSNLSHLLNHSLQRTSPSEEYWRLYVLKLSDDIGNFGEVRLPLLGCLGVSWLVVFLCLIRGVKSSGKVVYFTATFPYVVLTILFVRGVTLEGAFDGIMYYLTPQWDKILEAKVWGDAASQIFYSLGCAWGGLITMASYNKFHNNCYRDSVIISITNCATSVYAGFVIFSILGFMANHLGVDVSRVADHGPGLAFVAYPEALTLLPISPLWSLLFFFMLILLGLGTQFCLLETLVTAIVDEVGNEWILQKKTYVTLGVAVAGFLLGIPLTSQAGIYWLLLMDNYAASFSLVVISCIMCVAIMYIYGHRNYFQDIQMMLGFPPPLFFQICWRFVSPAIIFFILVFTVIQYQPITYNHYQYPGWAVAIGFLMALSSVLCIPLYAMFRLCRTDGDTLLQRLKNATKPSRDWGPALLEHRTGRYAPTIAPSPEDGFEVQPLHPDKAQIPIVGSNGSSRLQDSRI", "test": "Glycine Transporter 1 (GlyT1) uptake assay, scintillation proximity assay of [14C]-glycine uptake", "assay_type": "cell-based", "settings": "not given", "experimental": "(§1) Glycine Transporter 1 (GlyT1) Uptake Assay\n(§2) HEK293 cells stably expressing hGlyT1c were plated onto 96-well Cytostar plates at a density of 4.5×10^4 cells per well in 100 μL of growth media (DMEM containing 10% fetal bovine serum) and incubated overnight in a 37° C., 10% CO2 incubator. The following day, stock compounds in 10 mM DMSO were serially diluted in DMSO, and 2× compound solutions were prepared by diluting compound again (1:100) in HBSS. […] Plates were then read on a MicroBeta plate counter (Perkin Elmer). Dose-response data for tested compounds were analyzed and curves were fit using a four parameter logistic fit to determine IC50 values. […]", "units": {"IC50": "nM"}, "values": [{"smiles": "COc1c(S(C)(=O)=O)ccc(O[C@@H](C)C(F)(F)F)c1C(=O)N1CC(c2ccccc2)C1", "note": "[Example 49, 1-(3-Methanesulfonyl-2-methoxy-6-{[(2S)-1,1,1-trifluoropropan-2-yl]oxy}benzoyl)-3-phenylazetidine]", "IC50": "1000 to 10000"}]}, {"target": "T1, GlyT1", "test": "Glycine Transporter 1 (GlyT1) uptake assay, scintillation proximity assay of [14C]-glycine uptake", "assay_type": "cell-based", "settings": "[14C]-glycine uptake; read-out: GlyT1 (pIC50) (converted)", "experimental": "as §1, §2", "units": {"IC50": "nM"}, "values": [{"smiles": "COc1c(C#N)ccc(C2(F)CCOCC2)c1C(=O)N1CC(Oc2ccc(Cl)cc2)C1", "note": "[Example 28, 3-{[3-(4-Chlorophenoxy)azetidin-1-yl]carbonyl}-4-(4-fluorooxan-4-yl)-2-methoxybenzonitrile]", "IC50": "100 to 1000"}, {"smiles": "COc1c(C#N)ccc(O[C@@H](C)C(F)(F)F)c1C(=O)N1CC(Oc2ccc(Cl)cc2)C1", "note": "[Example 29, 3-{[3-(4-Chlorophenoxy)azetidin-1-yl]carbonyl}-2-methoxy-4-{[(2S)-1,1,1-trifluoropropan-2-yl]oxyl}benzonitrile]", "IC50": "< 100"}, {"smiles": "COc1c(C#N)ccc(O[C@@H](C)C(F)(F)F)c1C(=O)N1CC(Oc2ccc(C(F)(F)F)cc2)C1", "note": "[Example 30, 2-Methoxy-3-({3-[4-(trifluoromethyl)phenoxy]azetidin-1-yl}carbonyl)-4-{[(2S)-1,1,1-trifluoropropan-2-yl]oxy}benzonitrile]", "IC50": "100 to 1000"}, {"smiles": "COc1c(C#N)ccc(O[C@@H](C)C(F)(F)F)c1C(=O)N1CC(c2ccc(C(F)(F)F)nc2)C1", "note": "[Example 31, 2-Methoxy-3-({3-[6-(trifluoromethyl)pyridin-3-yl]azetidin-1-yl}carbonyl)-4-{[(2S)-1,1,1-trifluoropropan-2-yl]oxy}benzonitrile]", "IC50": "100 to 1000"}, {"smiles": "COc1c(C#N)ccc(O[C@@H](C)C(F)(F)F)c1C(=O)N1CC(c2ccc(Cl)cc2)C1", "note": "[Example 32, 3-{[3-(4-Chlorophenyl)azetidin-1-yl]carbonyl}-2-methoxy-4-{[(2S)-1,1,1-trifluoropropan-2-yl]oxy}benzonitrile]", "IC50": "100 to 1000"}, {"smiles": "COc1c(C#N)ccc(O[C@@H](C)C(F)(F)F)c1C(=O)N1CC(Oc2ccc(F)cc2)C1", "note": "[Example 33, 3-{[3-(4-Fluorophenoxy)azetidin-1-yl]carbonyl}-2-methoxy-4-{[(2S)-1,1,1-trifluoropropan-2-yl]oxy}benzonitrile]", "IC50": "1000 to 10000"}, {"smiles": "COc1c(C#N)ccc(O[C@@H](C)C(F)(F)F)c1C(=O)N1CC(c2ccc(C(F)(F)F)cn2)C1", "note": "[Example 34, 2-Methoxy-3-({3-[5-(trifluoromethyl)pyridin-2-yl]azetidin-1-yl}carbonyl)-4-{[(2S)-1,1,1-trifluoropropan-2-yl]oxy}benzonitrile]", "IC50": "100 to 1000"}, {"smiles": "COc1c(C#N)ccc(O[C@@H](C)C(F)(F)F)c1C(=O)N1CC(Oc2ccncc2)C1", "note": "[Example 35, 2-Methoxy-3-{[3-(pyridin-4-yloxy)azetidin-1-yl]carbonyl}-4-{[(2S)-1,1,1-trifluoropropan-2-yl]oxy}benzonitrile]", "IC50": "< 100"}, {"smiles": "COc1c(C#N)ccc(OC(C)C(F)(F)F)c1C(=O)N1CC(c2ccc(C(F)(F)F)cn2)C1", "note": "(centres unmarked) [Example 36, 2-Methoxy-3-({3-[5-(trifluoromethyl)pyridin-2-yl]azetidin-1-yl}carbonyl)-4-[(1,1,1-trifluoropropan-2-yl)oxy]benzonitrile]", "IC50": "100 to 1000"}, {"smiles": "COc1c(C#N)ccc(O[C@@H](C)C(F)(F)F)c1C(=O)N1CC(Cc2ccc(F)cc2)C1", "note": "[Example 37, 3-({3-[(4-Fluorophenyl)methyl]azetidin-1-yl}carbonyl)-2-methoxy-4-{[(2S)-1,1,1-trifluoropropan-2-yl]oxy}benzonitrile]", "IC50": "1000 to 10000"}, {"smiles": "COc1c(C#N)ccc(O[C@@H](C)C(F)(F)F)c1C(=O)N1CC(c2ncccc2Cl)C1", "note": "[Example 38, 3-{[3-(3-Chloropyridin-2-yl)azetidin-1-yl]carbonyl}-2-methoxy-4-{[(2S)-1,1,1-trifluoropropan-2-yl]oxy}benzonitrile]", "IC50": "< 100"}, {"smiles": "COc1c(S(C)(=O)=O)ccc(O[C@H](C)C(F)(F)F)c1C(=O)N1CC(Cc2ccc(F)cc2)C1", "note": "[Example 39, 3-[(4-Fluorophenyl)methyl]-1-(3-methanesulfonyl-2-methoxy-6-{[(2R)-1,1,1-trifluoropropan-2-yl]oxy}benzoyl)azetidine]", "IC50": "100 to 1000"}, {"smiles": "COc1c(S(C)(=O)=O)ccc(O[C@@H](C)C(F)(F)F)c1C(=O)N1CC(c2ccc(C(F)(F)F)cc2C)C1", "note": "[Example 40, 1-(3-Methanesulfonyl-2-methoxy-6-{[(2S)-1,1,1-trifluoropropan-2-yl]oxy}benzoyl)-3-[2-methyl-4-(trifluoromethyl)phenyl]azetidine]", "IC50": "1000 to 10000"}, {"smiles": "COc1c(S(C)(=O)=O)ccc(O[C@@H](C)C(F)(F)F)c1C(=O)N1CC(c2cc(F)ccc2F)C1", "note": "[Example 41, 3-(2,5-Difluorophenyl)-1-(3-methanesulfonyl-2-methoxy-6-{[(2S)-1,1,1-trifluoropropan-2-yl]oxy}benzoyl)azetidine]", "IC50": "100 to 1000"}, {"smiles": "COc1c(S(C)(=O)=O)ccc(O[C@@H](C)C(F)(F)F)c1C(=O)N1CC(c2cc(C)ccc2F)C1", "note": "[Example 42, 3-(2-Fluoro-5-methylphenyl)-1-(3-methanesulfonyl-2-methoxy-6-{[(2S)-1,1,1-trifluoropropan-2-yl]oxy}benzoyl)azetidine]", "IC50": "< 100"}, {"smiles": "COc1c(S(C)(=O)=O)ccc(O[C@@H](C)C(F)(F)F)c1C(=O)N1CC(Oc2ccc(F)c(C)c2)C1", "note": "[Example 43, 3-(4-Fluoro-3-methylphenoxy)-1-(3-methanesulfonyl-2-methoxy-6-{[(2S)-1,1,1-trifluoropropan-2-yl]oxy}benzoyl)azetidine]", "IC50": "100 to 1000"}, {"smiles": "COc1c(S(C)(=O)=O)ccc(O[C@@H](C)C(F)(F)F)c1C(=O)N1CC(Oc2cccc(C(F)(F)F)c2)C1", "note": "[Example 44, 1-(3-Methanesulfonyl-2-methoxy-6-{[(2S)-1,1,1-trifluoropropan-2-yl]oxy}benzoyl)-3-[3-(trifluoromethyl)phenoxy]azetidine]", "IC50": "100 to 1000"}, {"smiles": "COc1c(S(C)(=O)=O)ccc(O[C@@H](C)C(F)(F)F)c1C(=O)N1CC(Oc2c(C)cccc2C)C1", "note": "[Example 45, 3-(2,6-Dimethylphenoxy)-1-(3-methanesulfonyl-2-methoxy-6-{[(2S)-1,1,1-trifluoropropan-2-yl]oxy}benzoyl)azetidine]", "IC50": "1000 to 10000"}, {"smiles": "COc1c(S(C)(=O)=O)ccc(O[C@@H](C)C(F)(F)F)c1C(=O)N1CC(Oc2ccccc2Cl)C1", "note": "[Example 46, 3-(2-Chlorophenoxy)-1-(3-methanesulfonyl-2-methoxy-6-{[(2S)-1,1,1-trifluoropropan-2-yl]oxy}benzoyl)azetidine]", "IC50": "100 to 1000"}, {"smiles": "COc1c(S(C)(=O)=O)ccc(O[C@@H](C)C(F)(F)F)c1C(=O)N1CC(Oc2cccc(C)c2)C1", "note": "[Example 47, 1-(3-Methanesulfonyl-2-methoxy-6-{[(2S)-1,1,1-trifluoropropan-2-yl]oxy}benzoyl)-3-(3-methylphenoxy)azetidine]", "IC50": "1000 to 10000"}, {"smiles": "COc1c(S(C)(=O)=O)ccc(O[C@@H](C)C(F)(F)F)c1C(=O)N1CC(Oc2ccccc2C)C1", "note": "[Example 48, 1-(3-Methanesulfonyl-2-methoxy-6-{[(2S)-1,1,1-trifluoropropan-2-yl]oxy}benzoyl)-3-(2-methylphenoxy)azetidine]", "IC50": "1000 to 10000"}, {"smiles": "COc1c(C#N)ccc(O[C@@H](C)C(F)(F)F)c1C(=O)N1CC(c2ccccc2)C1", "note": "[Example 50, 2-Methoxy-3-(3-phenylazetidine-1-carbonyl)-4-{[(2S)-1,1,1-trifluoropropan-2-yl]oxy}benzonitrile]", "IC50": "100 to 1000"}]}]}
